Data taken from patent US11214578B2, “Urea/carbamates FAAH MAGL or dual FAAH/MAGL inhibitors and uses thereof” (Northeastern University, priority 2014, dated 2022).

How the values were obtained:
Format in all cases: biochemical
ΔTM rat FAAH = biological target: T1, ΔTM rat FAAH (Rattus norvegicus, UniProt P97612); experiment: Fluorescent assay protocol for ΔTM rat FAAH (AAMCA substrate); settings: 15 min preincubation, read-out: IC50 rFAAH
T1 construct: Preparation of Transmembrane Domain-Deleted Rat FAAH (ΔTM rFAAH); made in house; host or cells: E. coli
T1 sequence (P97612 30-579 limits assumed): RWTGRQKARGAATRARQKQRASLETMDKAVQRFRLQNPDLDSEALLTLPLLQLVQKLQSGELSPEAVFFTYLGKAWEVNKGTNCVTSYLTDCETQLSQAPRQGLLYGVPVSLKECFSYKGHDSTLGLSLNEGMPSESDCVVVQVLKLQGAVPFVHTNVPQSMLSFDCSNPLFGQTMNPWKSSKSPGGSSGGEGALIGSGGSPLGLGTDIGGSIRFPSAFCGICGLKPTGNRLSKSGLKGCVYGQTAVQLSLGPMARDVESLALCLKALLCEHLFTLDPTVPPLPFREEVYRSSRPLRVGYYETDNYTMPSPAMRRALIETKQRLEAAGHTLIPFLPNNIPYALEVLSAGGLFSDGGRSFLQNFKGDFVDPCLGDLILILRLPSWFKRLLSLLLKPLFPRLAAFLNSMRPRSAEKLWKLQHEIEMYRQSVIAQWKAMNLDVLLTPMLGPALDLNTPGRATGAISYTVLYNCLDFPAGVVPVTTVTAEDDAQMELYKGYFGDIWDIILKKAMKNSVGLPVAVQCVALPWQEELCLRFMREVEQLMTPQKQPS
Method: Procedure was followed as described for hMAGL, except that arachidonoyl-methyl coumarin amide (AAMCA) was used as fluorigenic substrate. […] For the screening assay, 3 concentrations (1 μM, 10 μM, and 100 μM) of test compounds, 15 μg of ΔTM rFAAH and assay buffer were pre-incubated for 15 min at 25° C. […] The fluorescence reading at the 3 hour time point (linear enzyme kinetics) was used to calculate percent inhibition based on control assays without inhibitor present. All FAAH assays were performed in triplicate for each inhibitor concentration, and IC50 values determined using Prizm software (GraphPad Software, Inc.).

Human FAAH (MBPΔTMhFAAH) = biological target: T2, Human FAAH (MBPΔTMhFAAH) (Homo sapiens, UniProt O00519); experiment: Fluorescent assay protocol for hFAAH; settings: human FAAH (MBP fusion, ΔTM), procedure as for rFAAH
T2 construct: made in house; host or cells: E. coli (pMALcE4 vector)
T2 sequence (O00519 30-579 limits assumed): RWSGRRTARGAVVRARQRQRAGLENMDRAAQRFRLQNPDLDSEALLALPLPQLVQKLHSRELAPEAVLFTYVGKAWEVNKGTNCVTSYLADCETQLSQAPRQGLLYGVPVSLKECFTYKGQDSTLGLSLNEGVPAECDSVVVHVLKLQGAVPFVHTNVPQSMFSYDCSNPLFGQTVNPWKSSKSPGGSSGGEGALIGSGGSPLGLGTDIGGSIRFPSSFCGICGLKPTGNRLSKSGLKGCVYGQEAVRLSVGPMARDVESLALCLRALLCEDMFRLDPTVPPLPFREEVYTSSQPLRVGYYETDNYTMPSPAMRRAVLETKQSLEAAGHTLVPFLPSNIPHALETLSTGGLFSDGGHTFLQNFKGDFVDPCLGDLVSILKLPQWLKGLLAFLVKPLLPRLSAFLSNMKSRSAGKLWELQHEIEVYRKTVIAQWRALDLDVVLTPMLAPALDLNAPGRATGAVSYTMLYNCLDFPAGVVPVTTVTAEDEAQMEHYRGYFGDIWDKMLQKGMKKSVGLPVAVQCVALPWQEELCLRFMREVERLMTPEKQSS
Method: Human FAAH without putative transmembrane domain following maltose binding protein was expressed in E. coli cells using pMALcE4 vector Alapafuja et al J. Med. Chem. (2012) 55: 10074-89.
Procedure was followed as described for hMAGL, except that arachidonoyl-methyl coumarin amide (AAMCA) was used as fluorigenic substrate. Compounds were diluted in 50:50 DMSO/assay buffer (50 mM HEPES, 1 mM EDTA, 0.1% BSA, pH 7.4) so as to have a final DMSO concentration below 8% in each reaction. For the screening assay, 3 concentrations (1 μM, 10 μM, and 100 μM) of test compounds, 15 μg of ΔTM rFAAH and assay buffer were pre-incubated for 15 min at 25° C. AAMCA (20 μM, 2×Km) was added prior to incubation at 25° C. and kinetic fluorescence reading every 20 minutes (λex=360/λem=460) for 4 hours on a BioTek Synergy HT Microplate Reader (BioTek Instruments, Winooski, Vt.). The fluorescence reading at the 3 hour time point (linear enzyme kinetics) was used to calculate percent inhibition based on control assays without inhibitor present. All FAAH assays were performed in triplicate for each inhibitor concentration, and IC50 values determined using Prizm software (GraphPad Software, Inc.).
Procedure was followed as described for rFAAH.

Rat MAGL (rMAGL) = biological target: T3, Rat MAGL (rMAGL) (Rattus norvegicus, UniProt Q8R431); experiment: Fluorescent assay protocol for rMAGL; settings: recombinant rat MAGL, procedure as for hMAGL; read-out: IC50 rMAGL
T3 construct: made in house; host or cells: E. coli
T3 sequence (Q8R431 1-303): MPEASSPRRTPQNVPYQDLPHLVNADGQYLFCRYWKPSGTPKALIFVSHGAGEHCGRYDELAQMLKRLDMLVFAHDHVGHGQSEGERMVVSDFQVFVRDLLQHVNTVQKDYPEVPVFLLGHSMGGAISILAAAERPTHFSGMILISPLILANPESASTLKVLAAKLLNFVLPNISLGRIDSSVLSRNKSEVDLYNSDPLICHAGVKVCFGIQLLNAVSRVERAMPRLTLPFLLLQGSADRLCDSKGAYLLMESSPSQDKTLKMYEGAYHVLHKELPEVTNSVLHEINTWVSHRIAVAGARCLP
Method: (§1) This medium throughput assay involved a 96-well plate format in which hMAGL activity was monitored by the hydrolysis of the substrate 7-hydroxy-6-methoxy-4-methylcoumarin ester (AHMMCE) to form the fluorescent product, coumarin. […] Upon the addition of AHMMCE, the reaction was incubated at 25° C. for 120 min; fluorescence readings were taken every 15 min at 360 nm/460 nm (λexcitation/λemission) using a Synergy HT Plate Reader (Bio-Tek, Winooski, Vt.). […] External standards were used to convert relative fluorescence units to the amount of 4-methylcoumarin formed. All MAGL assays were performed in triplicate for each inhibitor concentration, and IC50 values were calculated using Prizm software (GraphPad Software, Inc., San Diego, Calif.).
Procedure was followed as described for hMAGL.

Human MAGL (hMAGL) = biological target: T4, Human MAGL (hMAGL) (Homo sapiens, UniProt Q99685); experiment: Fluorescent assay protocol for hMAGL (AHMMCE substrate); settings: recombinant human MAGL, AHMMCE substrate, 15 min preincubation; read-out: IC50 hMAGL
T4 construct: hexahistidine; made in house; host or cells: E. coli
T4 sequence (Q99685 1-303): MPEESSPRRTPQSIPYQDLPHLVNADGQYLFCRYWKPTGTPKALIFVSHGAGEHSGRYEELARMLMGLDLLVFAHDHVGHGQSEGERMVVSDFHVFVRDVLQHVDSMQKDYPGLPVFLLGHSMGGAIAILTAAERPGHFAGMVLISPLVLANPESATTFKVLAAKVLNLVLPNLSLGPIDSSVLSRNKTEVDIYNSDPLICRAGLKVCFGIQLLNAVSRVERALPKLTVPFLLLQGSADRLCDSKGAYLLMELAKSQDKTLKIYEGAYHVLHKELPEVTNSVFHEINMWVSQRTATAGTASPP
Method: as §1

| IC50 (ΔTM rat FAAH) [nM] | IC50 (Human FAAH (MBPΔTMhFAAH)) [nM] | IC50 (Rat MAGL (rMAGL)) [nM] | IC50 (Human MAGL (hMAGL)) [nM] | Compound |
| --- | --- | --- | --- | --- |
| 10 to 100 | 10 to 100 | > 1000 | > 1000 | N#Cc1cccc(-c2cccc(NC(=O)N3CCN(Cc4ccc5ccccc5n4)CC3)c2)c1 [Example 13, N-(3′-cyano-[1,1′-biphenyl]-3-yl)-4-(quinolin-2-ylmethyl)piperazine-1-carboxamide] |
| > 1000 | > 1000 | > 1000 | > 1000 | O=C(Nc1cccc(Oc2ccccc2)c1)N1CCN(Cc2ccc3ccccc3n2)CC1 [Example 14, N-(3-phenoxyphenyl)-4-(quinolin-2-ylmethyl)piperazine-1-carboxamide] |
| > 1000 | > 1000 | > 1000 | > 1000 | N#Cc1cccc(-c2cccc(NC(=O)N3CCC(c4ccccc4)CC3)c2)c1 [Example 15, N-(3′-cyano-[1,1′-biphenyl]-3-yl)-4-phenylpiperidine-1-carboxamide] |
| > 1000 | > 1000 | > 1000 | > 1000 | N#Cc1cccc(-c2cncc(NC(=O)N3CCC(c4ccccc4)CC3)c2)c1 [Example 16, N-(5-(3-cyanophenyl)pyridin-3-yl)-4-phenylpiperidine-1-carboxamide] |
| 10 to 100 | 10 to 100 | > 1000 | > 1000 | N#Cc1cccc(-c2cccc(NC(=O)N3CCN(Cc4cccc(-c5ccccc5)c4)CC3)c2)c1 [Example 17, 4-([1,1′-biphenyl]-3-ylmethyl)-N-(3′-cyano-[1,1′-biphenyl]-3-yl)piperazine-1-carboxamide] |
| 10 to 100 | 110 to 1000 | > 1000 | > 1000 | NC(=O)c1cccc(-c2cccc(NC(=O)N3CCN(Cc4cccc(Oc5ccccc5)c4)CC3)c2)c1 [Example 18, N-(3′-carbamoyl-[1,1′-biphenyl]-3-yl)-4-(3-phenoxybenzyl)piperazine-1-carboxamide] |
| 110 to 1000 | 110 to 1000 | > 1000 | > 1000 | C[C@H]1CN(C(=O)Nc2cccc(-c3cccc(C#N)c3)c2)CCN1Cc1ccc2ccccc2n1 [Example 19, (S)—N-(3′-cyano-[1,1′-biphenyl]-3-yl)-3-methyl-4-(quinolin-2-ylmethyl)piperazine-1-carboxamide] |
| 110 to 1000 | 110 to 1000 | > 1000 | > 1000 | N#Cc1cccc(-c2cccc(NC(=O)N3CCC4(CC3)CC(=O)c3ccccc3O4)c2)c1 [Example 20, N-(3′-cyano-[1,1′-biphenyl]-3-yl)-4-oxospiro[chromane-2,4′-piperidine]-1′-carboxamide] |
| 110 to 1000 | 110 to 1000 | > 1000 | > 1000 | C[C@H]1CN(C(=O)n2cnc(-c3ccccc3)c2)CCN1Cc1cccc(-c2ccccc2)c1 [Example 21, (S)-(4-([1,1′-biphenyl]-3-ylmethyl)-3-methylpiperazin-1-yl)(4-phenyl-1H-imidazol-1-yl)methanone] |

The remaining lines, values behind:

| Compound | IC50 (ΔTM rat FAAH) [nM] | IC50 (Human FAAH (MBPΔTMhFAAH)) [nM] | IC50 (Rat MAGL (rMAGL)) [nM] | IC50 (Human MAGL (hMAGL)) [nM] |
| --- | --- | --- | --- | --- |
| C[C@H]1CN(Cc2cccc(Oc3ccccc3)c2)CCN1C(=O)n1cnc(Br)c1 [Example 22, (S)-(4-bromo-1H-imidazol-1-yl)(2-methyl-4-(3-phenoxybenzyl)piperazin-1-yl)methanone] | 110 to 1000 | 110 to 1000 | > 1000 | > 1000 |
| CC1CN(c2ccccc2)CCN1C(=O)n1cnc(-c2ccccc2)c1 (stereo not shown) [Example 23, (2-methyl-4-phenylpiperazin-1-yl)(4-phenyl-1H-imidazol-1-yl)methanone] | 10 to 100 | 110 to 1000 | > 1000 | > 1000 |
| CC1CN(C(=O)n2cnc(-c3ccccc3)c2)CCN1c1ccccc1 (stereo not shown) [Example 24, (3-methyl-4-phenylpiperazin-1-yl)(4-phenyl-1H-imidazol-1-yl)methanone] | 10 to 100 | 110 to 1000 | > 1000 | > 1000 |
| Cc1ccc(N2CCN(C(=O)n3cnc(-c4ccccc4)c3)CC2C)cc1 (stereo not shown) [Example 25, (3-methyl-4-(p-tolyl)piperazin-1-yl)(4-phenyl-1H-imidazol-1-yl)methanone] | 10 to 100 | 10 to 100 | > 1000 | > 1000 |
| CC1CN(C(=O)n2cnc(-c3ccccc3)c2)CCN1c1cccc(OCc2ccccc2)c1 (stereo not shown) [Example 26, (4-(3-(benzyloxy)phenyl)-3-methylpiperazin-1-yl)(4-phenyl-1H-imidazol-1-yl)methanone] | 10 to 100 | 110 to 1000 | > 1000 | > 1000 |
| CC1CN(C(=O)n2cnc(-c3ccccc3)c2)CCN1c1cccc(O)c1 (stereo not shown) [Example 27, (4-(3-hydroxyphenyl)-3-methylpiperazin-1-yl)(4-phenyl-1H-imidazol-1-yl)methanone] | 110 to 1000 | 110 to 1000 | > 1000 | > 1000 |
| O=C(N1CCN(C(c2ccc(F)cc2)c2ccc(F)cc2)CC1)n1cnc(Br)c1 [Example 28, (4-(bis(4-fluorophenyl)methyl)piperazin-1-yl)(4-bromo-1H-imidazol-1-yl)methanone] | 110 to 1000 | 110 to 1000 | > 1000 | > 1000 |
